According to publication PMC9808370 (Molecular cancer therapeutics, 2023):
Like-named read-outs stand apart in the source and are kept apart here.

Assays:
[1] = tested on: G3MB and SHHMB tumor cells; experiment: Single agent drug screen, statements over the panel of MB models; assay type: cell-based, human; settings: most potent compounds over the MB models
[2] = tested on: HD-MB03 cells; settings: HD-MB03, 1h exposure
[3] = tested on: HD-MB03 cells; experiment: cells; assay type: cell-based, human
[4] = tested on: HD-MB03 cells
[5] = tested on: SJMBSHH-13-5634 intracranial PDX
[6] = tested on: HD-MB03 intracranial xenograft; experiment: Pre-clinical trial, survival of intracranial tumor bearing mice; assay type: in vivo, mouse
[7] = tested on: MB002 intracranial xenograft; experiment: as above; assay type: in vivo, mouse; settings: 10 mg/kg
[8] = Toxicity measurement in tumor bearing mice; assay type: in vivo, mouse
[9] = adult patients, once a day dosing; cited from earlier work
[10] = tested on: MYC, CYCLIN E, p27KIP1 expression in HD-MB03 cells; experiment: Immunoblotting; assay type: cell-based, human; settings: HD-MB03, 72h, 5μM ribociclib, 0.3μM JQ1, 0.5μM paxalisib

With `Cc1csc(-c2nnc(Nc3ccc(Oc4ncccc4-c4ccnc(N)n4)cc3)c3ccccc23)c1` [AMG-900] as the compound, how does the “IC50 (in words)” value [1] read?
The value was “picomolar to low nanomolar range”.

For `CON(C)C(=O)N1N=C(c2cc(F)ccc2F)S[C@@]1(CCCN)c1ccccc1` [ARRY-520 /filanesib, filanesib], which “IC50 (in words)” value [1] is on record?
Its value is “picomolar to low nanomolar range”.

With `Cc1sc2c(c1C)C(c1ccc(Cl)cc1)=N[C@@H](CC(=O)OC(C)(C)C)c1nnc(C)n1-2` [JQ1] as the compound, how does the IC50 [2] read?
Its IC50 is over 2 µM.

And the IC20 ([3]; HD-MB03, anchor concentration)?
Its IC20 is 0.132 µM.

With `Cc1nc(Nc2n[nH]c3c2CN(C(=O)N[C@H](CN(C)C)c2ccccc2)C3(C)C)c2sccc2n1` [PF-03758309] as the compound, how does the “IC50 (in words)” value [1] read?
The value was “picomolar to low nanomolar range”.

Which “IC50 (in words)” value [1] does the source give for `CCc1c2c(nc3ccc(O)cc13)-c1cc3c(c(=O)n1C2)COC(=O)[C@]3(O)CC` [SN-38] here?
The value was “picomolar to low nanomolar range”.

For `CCN1CCN(Cc2ccc(Nc3ncc(F)c(-c4cc(F)c5nc(C)n(C(C)C)c5c4)n3)nc2)CC1` [abemaciclib], which “EC50 fold improvement (IC50 fold change of drug partner)” value [4] is on record?
Its value is 12.8 fold.

For `CC(=O)c1c(C)c2cnc(Nc3ccc(N4CCNCC4)cn3)nc2n(C2CCCC2)c1=O` [palbociclib], which “EC50 fold improvement (IC50 fold change of drug partner)” value [4] is on record?
The value was 30.5 fold.

Which Median survival ([5]; 10 mg/kg) does the source give for `CC1(C)OCCn2c1nc1c(N3CCOCC3)nc(-c3cnc(N)nc3)nc12` [paxalisib] here?
Its Median survival is 46 days.

What about the Median survival ([6]; 10 mg/kg) of the same compound?
The Median survival was 27 days.

What about the Median survival [7] of the same compound?
The Median survival was 33.5 days.

And the “body weight and body condition” value ([8]; MB bearing mice, paxalisib 10mg/kg alone or with ribociclib 100mg/kg)?
The value was “severe weight loss and had poor body condition”.

What about the maximum tolerated dose [9] of the same compound?
Its maximum tolerated dose is 45 mg/day.

What does the source list for `CN(C)C(=O)c1cc2cnc(Nc3ccc(N4CCNCC4)cn3)nc2n1C1CCCC1` [ribociclib]?
Median survival ([5]; 100 mg/kg): 71.5 days; Median survival ([6]; 100 mg/kg): 25 days; EC50 fold improvement (IC50 fold change of drug partner) ([4]; Fig. 2D, 0.132μM JQ1 anchor, HD-MB03): 7.8 fold; complete blood counts (in words) ([8]; MB002-bearing mice, ribociclib 100mg/kg, JQ1 50mg/kg daily): mild leukopenia; IC20 ([3]; Homo sapiens, HD-MB03): 5 µM; MYC, CYCLIN E, p27KIP1 protein expression [10]: increased expression of MYC and CYCLIN E proteins
